Measured values reported in PubChem BioAssay AID248 (DTP/NCI, 2004).
Toxic doses and inconclusive results are not listed. Cut-off read from the data, not from the text of the source: active = T/C of 150% or more; inactive = T/C below 125%.

Tested on: L1210 leukemia ip in BDF1 mice, survival T/C
Experiment: NCI In Vivo Anticancer Drug Screen. Data for tumor model L1210 Leukemia (intraperitoneal) in B6D2F1 (BDF1) mice
Details: endpoint: mean survival time, higher = longer survival
Method in brief: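 Tumor was transplanted into mice, which were then dosed with test compound or vehicle alone. Survival was recorded for each group, and the treated figure was expressed relative to the control figure.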

[1] = dose: 100.0 mg/kg/injection, schedule: Q04DX003 (ip), vehicle: Klucel (hydroxypropylcellulose) (HPC)
[2] = dose: 200.0 mg/kg/injection, schedule: Q04DX003 (ip), vehicle: Klucel (hydroxypropylcellulose) (HPC)
[3] = dose: 400.0 mg/kg/injection, schedule: Q04DX003 (ip), vehicle: Klucel (hydroxypropylcellulose) (HPC)
[4] = dose: 100.0 mg/kg/injection, schedule: Q01DX009 (ip), vehicle: saline with Tween-80
[5] = dose: 200.0 mg/kg/injection, schedule: Q01DX009 (ip), vehicle: saline with Tween-80
[6] = dose: 400.0 mg/kg/injection, schedule: Q01DX009 (ip), vehicle: saline with Tween-80
[7] = dose: 100.0 mg/kg/injection, schedule: Q01DX009 (ip), vehicle: saline
[8] = dose: 100.0 mg/kg/injection, schedule: Q04DX003 (ip), vehicle: saline
[9] = dose: 200.0 mg/kg/injection, schedule: Q01DX009 (ip), vehicle: saline
[10] = dose: 200.0 mg/kg/injection, schedule: Q04DX003 (ip), vehicle: saline
[11] = dose: 400.0 mg/kg/injection, schedule: Q04DX003 (ip), vehicle: saline
[12] = dose: 100.0 mg/kg/injection, schedule: Q01DX001 (ip), vehicle: Klucel (hydroxypropylcellulose) (HPC)
[13] = dose: 200.0 mg/kg/injection, schedule: Q01DX001 (ip), vehicle: Klucel (hydroxypropylcellulose) (HPC)
[14] = dose: 400.0 mg/kg/injection, schedule: Q01DX001 (ip), vehicle: Klucel (hydroxypropylcellulose) (HPC)
[15] = dose: 100.0 mg/kg/injection, schedule: Q01DX009 (ip), vehicle: Klucel (hydroxypropylcellulose) (HPC)
[16] = dose: 200.0 mg/kg/injection, schedule: Q01DX009 (ip), vehicle: Klucel (hydroxypropylcellulose) (HPC)
[17] = dose: 100.0 mg/kg/injection, schedule: Q04DX002 (ip), vehicle: Klucel (hydroxypropylcellulose) (HPC)
[18] = dose: 200.0 mg/kg/injection, schedule: Q04DX002 (ip), vehicle: Klucel (hydroxypropylcellulose) (HPC)
[19] = dose: 400.0 mg/kg/injection, schedule: Q04DX002 (ip), vehicle: Klucel (hydroxypropylcellulose) (HPC)

Measured: T/C

C=COC(=O)CCCCCCCCCCCCCCCCC
inactive: [1] 101 % of control | [2] 100 % of control | [3] 103 % of control

Cc1cc2nc(CBr)c(CBr)nc2cc1C
inactive: dose: 3.12 mg/kg/injection, schedule: Q01DX009 (ip), vehicle: acetone 100 % of control | dose: 6.25 mg/kg/injection, schedule: Q01DX009 (ip), vehicle: acetone 94 % of control | dose: 6.25 mg/kg/injection, schedule: Q04DX003 (ip), vehicle: Klucel (hydroxypropylcellulose) (HPC) 95 % of control | dose: 12.5 mg/kg/injection, schedule: Q04DX003 (ip), vehicle: Klucel (hydroxypropylcellulose) (HPC) 101 % of control | dose: 12.5 mg/kg/injection, schedule: Q04DX003 (ip), vehicle: saline with Tween-80 98 % of control | dose: 25.0 mg/kg/injection, schedule: Q04DX003 (ip), vehicle: Klucel (hydroxypropylcellulose) (HPC) 93 % of control

CCOCC(C(=O)OCC)C(=O)OCC
inactive: [4] 111 % of control | [5] 111 % of control | [6] 97 % of control

O=C1OC(C(O)C(O)CO)C(O)C1O (centres undefined)
inactive: dose: 50.0 mg/kg/injection, schedule: Q01DX009 (ip), vehicle: saline 92 % of control | [7] 92 % of control | [8] 92 % of control | [9] 97 % of control | [10] 94 % of control | [11] 100 % of control

CCCCCCCCCCCCCCCCCCC1=NCCN1
inactive: dose: 2.34 mg/kg/injection, schedule: Q01DX009 (ip), vehicle: saline 101 % of control | dose: 4.68 mg/kg/injection, schedule: Q01DX009 (ip), vehicle: saline 96 % of control | dose: 9.37 mg/kg/injection, schedule: Q01DX009 (ip), vehicle: saline 86 % of control | dose: 18.75 mg/kg/injection, schedule: Q04DX003 (ip), vehicle: saline 90 % of control | dose: 75.0 mg/kg/injection, schedule: Q01DX001 (ip), vehicle: acetone 97 % of control

O=C1CCC(N2C(=O)C3C(C2=O)C2(Cl)C(Cl)=C(Cl)C3(Cl)C2(Cl)Cl)C(=O)N1 (centres undefined)
inactive: [8] 94 % of control | [10] 97 % of control

Cc1c(CN(C)C)cccc1C(=O)Nc1ccccc1
inactive: dose: 50.0 mg/kg/injection, schedule: Q01DX001 (ip), vehicle: saline 115 % of control | dose: 200.0 mg/kg/injection, schedule: Q01DX001 (ip), vehicle: saline 104 % of control

CCCCCCCCCCCCOc1cccc(OCCCCCCCCCCCC)c1
inactive: [12] 92 % of control | [13] 87 % of control | [14] 87 % of control

Cc1cc(C(=O)O)c(C)n1-c1cccc(C(=O)O)c1
inactive: dose: 50.0 mg/kg/injection, schedule: Q01DX009 (ip), vehicle: Klucel (hydroxypropylcellulose) (HPC) 102 % of control | [12] 94 % of control | [15] 102 % of control | [13] 102 % of control | [16] 89 % of control | [14] 91 % of control

O=C1NC(=O)C(F)C(O)N1 (centres undefined)
inactive: dose: 5.0 mg/kg/injection, schedule: Q01DX001 (ip), vehicle: saline 102 % of control | dose: 10.0 mg/kg/injection, schedule: Q01DX001 (ip), vehicle: saline 101 % of control | dose: 20.0 mg/kg/injection, schedule: Q01DX001 (ip), vehicle: saline 96 % of control | dose: 40.0 mg/kg/injection, schedule: Q01DX001 (ip), vehicle: saline 101 % of control | dose: 80.0 mg/kg/injection, schedule: Q01DX001 (ip), vehicle: saline 108 % of control

O=C1C=C(O)C2C3C=CC(CC3)C12 (centres undefined)
inactive: [17] 106 % of control | [18] 106 % of control | [19] 92 % of control

CCCCC(C(C)=O)C(C)=O
inactive: [15] 100 % of control | [17] 86 % of control | [16] 100 % of control | [18] 93 % of control | dose: 400.0 mg/kg/injection, schedule: Q01DX009 (ip), vehicle: Klucel (hydroxypropylcellulose) (HPC) 89 % of control | [19] 86 % of control

O=C(CCl)Nc1ccccc1
inactive: [17] 89 % of control | [18] 92 % of control

O=C(Nc1ccc(C2=NCCN2)cc1)C(=O)Nc1ccc(C2=NCCN2)cc1
inactive: dose: 15.0 mg/kg/injection, schedule: Q01DX Z (ip), vehicle: saline 101 % of control | dose: 30.0 mg/kg/injection, schedule: Q01DX Z (ip), vehicle: saline 118 % of control | dose: 60.0 mg/kg/injection, schedule: Q01DX Z (ip), vehicle: saline 124 % of control

O=c1c(Cl)c(C(Cl)(Cl)Cl)n(O)c2ccccc12
inactive: dose: 6.25 mg/kg/injection, schedule: Q01DX001 (ip), vehicle: Klucel (hydroxypropylcellulose) (HPC) 104 % of control | dose: 12.5 mg/kg/injection, schedule: Q01DX001 (ip), vehicle: Klucel (hydroxypropylcellulose) (HPC) 104 % of control | dose: 25.0 mg/kg/injection, schedule: Q01DX001 (ip), vehicle: Klucel (hydroxypropylcellulose) (HPC) 98 % of control | dose: 50.0 mg/kg/injection, schedule: Q01DX001 (ip), vehicle: Klucel (hydroxypropylcellulose) (HPC) 103 % of control | [12] 95 % of control

O=S(=O)(Cc1cccc(C(F)(F)F)c1)c1ccccc1-n1cccc1
inactive: [2] 90 % of control | [3] 98 % of control

O=C(Nc1c(Br)cc2c(c1Br)Cc1cc([N+](=O)[O-])ccc1-2)C(Cl)Cl
inactive: dose: 100.0 mg/kg/injection, schedule: Q01DX001 (ip), vehicle: carboxymethylcellulose (CMC) 98 % of control | dose: 200.0 mg/kg/injection, schedule: Q01DX001 (ip), vehicle: carboxymethylcellulose (CMC) 107 % of control | dose: 400.0 mg/kg/injection, schedule: Q01DX001 (ip), vehicle: carboxymethylcellulose (CMC) 109 % of control

Cn1cnnc1N
inactive: [8] 97 % of control | [10] 101 % of control | [11] 103 % of control

CC(=O)Nc1cc(Cl)cc2c1-c1c(Cl)cc(Cl)cc1C2=O
inactive: [7] 98 % of control | [1] 94 % of control | [2] 94 % of control | [3] 91 % of control

O=S(O)c1ccc(Cl)cc1
inactive: [7] 101 % of control | [9] 100 % of control | dose: 400.0 mg/kg/injection, schedule: Q01DX009 (ip), vehicle: saline 98 % of control

COc1ccc(-n2c(=O)c(N=Nc3ccccc3C)c(O)n(-c3ccc(C)cc3)c2=S)cc1
inactive: [12] 95 % of control | [13] 97 % of control | [14] 97 % of control

CSCc1cnc(N)nc1-c1ccccc1
inactive: dose: 100.0 mg/kg/injection, schedule: Q04DX003 (ip), vehicle: saline with Tween-80 105 % of control | dose: 200.0 mg/kg/injection, schedule: Q04DX003 (ip), vehicle: saline with Tween-80 97 % of control | dose: 400.0 mg/kg/injection, schedule: Q04DX003 (ip), vehicle: saline with Tween-80 105 % of control

N=Cc1c(O)n(-c2ccccc2)c(=O)n(-c2ccccc2)c1=O
inactive: [4] 102 % of control | [5] 104 % of control | [6] 93 % of control
